The values that follow are results of earlier work, collected in patent US8114422B2, “Methods and compositions for reducing skin damage” (The General Hospital Corporation, priority 2005, dated 2012).

Read-outs that look alike come from different tables or passages of the source.

Data set [1] relates to mitochondrial membrane potential.
For the next data set, the target named is PDGF receptor kinase. Conditions: read-out: IC50 PDGF receptor (tyrosine) kinase.

As to `N#CC(C#N)=NNc1ccc(OC(F)(F)F)cc1` [FCCP, Carbonylcyanide-4-(trifluoromethoxy)-phenylhydrazone], the entries for the “depolarization of mitochondrial membrane potential” value in data set [1] (treatment of cells at 10 μM) and in data set [1] (treatment of cells at 100 nm) were “complete (10 μM)” and “partial (100 nm) or”, respectively.
Consider `N#CC(=Cc1ccc2[nH]ccc2c1)C(N)=C(C#N)C#N` [AG-370], for which the IC50 at PDGF receptor kinase is 20 µM.
In the case of `COc1cc2ncc(-c3ccccc3)nc2cc1OC` [AG-1296, 6,7-Dimethoxy-3-phenylquinoxaline], at PDGF receptor kinase, the IC50 is 1 µM.
